Measured values as given in patent publication EP4772500A1, “NOVEL ISOXAZOLE COMPOUND AS TM4SF5-SPECIFIC INHIBITOR AND USE THEREOF” (Seoul National University R&DB Foundation, priority 2023, dated 2025).

Legend:
[1] = system: TM4SF5-expressing cells (SNU449T7); assay: 3D sphere growth/proliferation; format: cell-based, human; conditions: for degree of cell proliferation (spheres): 2.5 µM on the 0 and 3rd days, observed 6th day (FIG. 5b); for survival/proliferation of the spheres: given concentrations on the 0, 3, 6, and 9th days, observed 10th day (FIG. 12b-c); for cell proliferation inhibitory effect: 0.5 or 2.5 µM (FIG. 10a, b), comparison among drugs
Experimental: TM4SF5-non-expressing cells (SNU449Cp) and TM4SF5-expressing cells (SNU449T7) of the same number (200 cells/well or 1000 cells/well) were added per well into Costar Ultra-Low Attachment Multiple Well Plates (CORNING), and were then treated with vehicle (DMSO) or drugs at various concentrations and cultured in a cell incubator under conditions of 37°C and 5% CO2. After repeatedly treating with the same concentrations of drugs every few days at regular intervals as indicated from the date of cell culture, the proliferation of the cells (spheres) was observed and photographed using an optical microscope on the last day of observation.
The drugs treated were the positive control drug TSAHC or the ST-1-025 isoxazole compound at the given concentrations. From the time of starting culture (0 day), (FIG. 3a) in the case of 2D culture, the number of cells was measured after treating with the drug every 24 hours, or (FIG. 3b) in a 3D environment, the proliferation of cells (spheres) was observed and photographed with an optical microscope on the 5th and 7th days after a single drug treatment at the start of culture. […]

[2] = system: TM4SF5-expressing cells (SNU449T7); assay: Western blotting for signaling factors whose phosphorylation increases in a TM4SF5-expression dependent manner; format: cell-based, human; conditions: for phosphorylation of FAK, c-Src, STAT3, p27, S6K1, and AKT / phosphorylation of FAK, STAT3, c-Src, S6K1, Akt, and p27: given concentrations; for phosphorylation of FAK, c-Src, STAT3, p27, S6K1, AKT, and STAT5: 24 hours (FIG. 9a-b)
Experimental: Cell extracts were obtained from cells grown to a density of 70-80% without any treatment, or from cells treated with vehicle DMSO or drugs at the given concentrations for 24 hours. For the extract of hepatocytes or liver cancer cells, a lysis buffer (150 mM NaCl, 1% NP-40, 50 mM Tris-HCl, 0.25% sodium deoxycholate, pH 7.4) including a protease inhibitor cocktail (GenDEPOT) was used. In addition, after washing animal liver tissue twice with PBS, SDS, Na3VO4, and protease inhibitor cocktails (GenDEPOT) were added to a lysis buffer [50 mM Tris-HCl, pH 7.4, 1% NP40, 0.25% sodium deoxycholate, 150 mM NaCl, 1 mM EDTA (based on 500 ml)], followed by treatment at 4°C for 15 minutes. After centrifugation at 13,000 rpm at 4°C for 30 minutes, only the supernatant was transferred to a new microcentrifuge tube. After quantification using BCA reagent (Thermo Scientific), a 4 × sample buffer [100% glycerol 4 ml, Tris-HCl, pH 6.8, 2.4 ml, SDS 0.8 g, Bromophenol blue 4 mg, betamercaptoethanol 0.4 ml, H2O 3.1 ml (based on 10 ml)] was added, followed by boiling at 100°C for 5 minutes. After performing SDS-PAGE electrophoresis with the above samples and transferring them to Nitrocellulose Membranes Protran™ nitrocellulose membranes (Whatman), pre-treatment was performed with 5% skim milk for 1 hour. After pre-treatment, primary antibodies of p-FAK(Y861) (SC-16663), p-FAK(Y577) (SC-16665), c-Src (SC-8056), STAT3 (SC-8019), p-AKT 1/2/3(S473) (SC-7985), STATS (SC-835), Laminin γ2 (SC-393225), COL1A1 (SC-28657), CCL5(RANTES) (SC-514019) CCL20(MIP-3α) (SC-517441), SIRT1 (SC-74465), ChREBP (SC-515922), SREBP1 (SC-366513), DGAT1 (SC-271934), DGAT2 (SC-293211), MICA/B (SC-137242), SLAMF7 (SC-390840), α-tublin (SC-5286), β-actin (SC-47778), FUCA (SC-365496) (the above from Santa Cruz Biotech, USA), p-FAK(Y397) (cat # 611723), FAK (cat # 610088), p27 (cat # 610242) (the above from BD Transduction, USA), p-FAK(Y925) (#3284) p-c-Src(Y416) (#2101), p-STAT3(Y705) (#9145), p70S6K1 (#9202), p-p70S6K1(T389) (#9205), p-STAT5(Y694) (#9314), ACC (#3676), FASN (#3189), CPT1A (#12252), p-ACC(S79) (#11818), HA (#3724), PD-L1 (#13684), PD-1 (#86163), p-ERK1/2(T202/Y204) (#9101s), ERK1/2 (#9102s) (the above from Cell Signaling Tech., USA), pS10p27(S10) (ab62364), human SLAMF6 (ab224201), TIGIT (ab233404), CD34 (ab81289) (the above from Abcam, UK), mouse SLAMF6 (PA5-87823), NKG2D (PA5-102038) (the above from Thermofisher, USA), α-SMA (Sigma Aldrich, A5228), CCL2 (Invitrogen, MA5-17040), and CD155(PVR) (Biolegend, 337601), HA (Biolegend, USA), Strep-HRP(horse-radish peroxidase), StrepMAB-HRP (IBA, USA), AFP (FineTest, FNab00203) were reacted at 4°C for 15 hours. The next day, secondary antibodies were reacted, and development was performed on X-ray film using ECL (Pierce, USA). Anti-TM4SF5C-ter (epitope region of RKKQDTPH^197) and anti-TM4SF5EC2 (CLMNGEWGYHFEDTAGA^130) were custom-made at a professional antibody production company (Pro-Sci, Poway, CA, USA).
Cell extracts were obtained before and after treating TM4SF5-non-expressing cells (SNU449Cp) and TM4SF5-expressing cells (SNU449T7) with ST-1-024 or ST-1-025 drugs at the given concentrations for 24 hours, and Western blotting was performed for signaling factors whose phosphorylation and activity increase in a TM4SF5-expression dependent manner.
(a) Cell extracts were obtained after treating TM4SF5-non-expressing cells (SNU449Cp) and TM4SF5-expressing cells (SNU449T7) with vehicle (DMSO), TSAHC, or isoxazole compounds ST-2-001, ST-2-002, ST-2-003, ST-2-004, ST-2-005, ST-2-006, ST-2-007, ST-2-008, ST-2-009, ST-2-010, or ST-2-011 at a dose of 5 µM (for 24 hours). Using these, Western blotting was performed for signaling factors whose phosphorylation and activity increase in a TM4SF5-expression dependent manner. […]

[3] = single treatment at 5 µM at start of culture, observed 5th and 7th days (FIG. 3b)
[4] = SNU449T7, given concentrations, 24 hours (FIG. 2)
[5] = 0.1 or 1.0 µM, observed 10th day (FIG. 10c)
[6] = 0.5 or 2.5 µM, observed 6th or 10th day (FIG. 10a, b)

Cc1ccc(S(=O)(=O)Nc2ccc(C(=O)/C=C/c3ccc(O)cc3)cc2)cc1 [TSAHC, 4'-(p-toluenesulfonylamino)-4-hydroxychalcone, reference compound]
degree of cell proliferation (spheres) [1]: inhibited
degree of sphere proliferation [1, 3]: inhibited, albeit slightly
phosphorylation of FAK, c-Src, STAT3, and p27 ([2]; 5 µM, 24 hours (FIG. 5a)): decreased
phosphorylation of FAK, c-Src, STAT3, and p27 [2, 4]: decreased
phosphorylation of FAK, c-Src, STAT3, p27, S6K1, and AKT ([2]; 24 hours (FIG. 5c)): decreased in a drug concentration-dependent manner

CC(=O)Nc1ccc(-c2cc(-c3ccc(O)cc3)no2)cc1 [ST-5-001, N-(4-(3-(4-hydroxyphenyl)isoxazole-5-yl)phenyl)acetamide]
survival/proliferation of the spheres [1]: inhibited
phosphorylation of FAK, STAT3, c-Src, S6K1, Akt, and p27 ([2]; 24 hours (FIG. 12d)): inhibited

CC(=O)Nc1ccc(-c2cc(-c3ccc(F)cc3)on2)cc1 [ST-3-006, N-(4-(5-(4-fluorophenyl)isoxazole-3-yl)phenyl)acetamide]
degree of three-dimensional cell proliferation [1, 5]: decreased
cell proliferation inhibitory effect [1]: strong
degree of three-dimensional cell proliferation [1, 6]: inhibited
phosphorylation of FAK, c-Src, STAT3, p27, S6K1, AKT, and STAT5 ([2]; 5 µM): decreased
phosphorylation of FAK, c-Src, STAT3, p27, S6K1, and AKT ([2]; 24 hours (FIG. 9c)): decreased in a concentration-dependent manner

COc1ccc(-c2cc(-c3cccc(NC(C)=O)c3)no2)cc1 [ST-3-011, N-(3-(5-(4-methoxyphenyl)isoxazole-3-yl)phenyl)acetamide]
degree of three-dimensional cell proliferation [1, 5]: decreased
degree of three-dimensional cell proliferation [1, 6]: inhibited
phosphorylation of FAK, c-Src, STAT3, p27, S6K1, AKT, and STAT5 ([2]; 5 µM): decreased
phosphorylation of FAK, c-Src, STAT3, p27, S6K1, and AKT ([2]; 24 hours (FIG. 9c)): decreased in a concentration-dependent manner

COc1ccc(-c2cc(-c3ccc(N)cc3)no2)cc1 [ST-1-025, 4-(5-(4-methoxyphenyl)isoxazole-3-yl)aniline]
degree of sphere proliferation ([1]; repeated treatment at given concentrations on the 0, 5, and 6th days, observed 7th day (FIG. 3c)): inhibited by ST-1-025 in a concentration-dependent manner, albeit slightly
degree of sphere proliferation [1, 3]: inhibited, albeit slightly
phosphorylation of FAK, c-Src, STAT3, and p27 [2, 4]: decreased

COc1ccc(-c2cc(-c3ccc(NC(C)=O)cc3)no2)cc1 [ST-2-001, N-(4-(5-(4-methoxyphenyl)isoxazole-3-yl)phenyl)acetamide]
degree of cell proliferation (spheres) [1]: inhibited
cell proliferation inhibitory effect [1]: strong
degree of three-dimensional cell proliferation [1, 6]: inhibited
survival/proliferation of the spheres [1]: inhibited
phosphorylation of FAK, c-Src, STAT3, and p27 ([2]; 5 µM, 24 hours (FIG. 5a)): decreased
phosphorylation of FAK, c-Src, STAT3, p27, S6K1, AKT, and STAT5 ([2]; 5 µM): decreased
phosphorylation of FAK, c-Src, STAT3, p27, S6K1, and AKT ([2]; 24 hours (FIG. 5c)): decreased in a drug concentration-dependent manner
phosphorylation of FAK, c-Src, STAT3, p27, S6K1, and AKT ([2]; 24 hours (FIG. 9c)): decreased in a concentration-dependent manner
phosphorylation of FAK, STAT3, c-Src, S6K1, Akt, and p27 ([2]; 24 hours (FIG. 12a)): inhibited in many cases including STAT3, S6K1, and FAK
phosphorylation of FAK, STAT3, c-Src, S6K1, Akt, and p27 ([2]; 24 hours (FIG. 12d)): inhibited

Cc1ccc(C(=O)Nc2ccc(-c3cc(-c4ccc(O)cc4)no3)cc2)cc1 [ST-5-002, N-(4-(3-(4-hydroxyphenyl)isoxazole-5-yl)phenyl)-4-methylbenzamide]
survival/proliferation of the spheres [1]: inhibited
phosphorylation inhibitory efficacy ([2]; drug with improved purity (FIG. 12d)): maintained and further improved
phosphorylation of FAK, STAT3, c-Src, S6K1, Akt, and p27 ([2]; 24 hours (FIG. 12d)): inhibited
